Several values for one entry are separate records, joined by “and”; a condition that tells them apart may be missing. Equal entries are not always repeated.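 96-well plates; 48 h exposure; 5 concentrations. Endpoints by linear interpolation between flanking doses. Not reached: highest tested concentration assigned. GI50 is the concentration that inhibits growth by half. TGI: total growth inhibition.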
Assays:
Assay in all cases: DTP human tumour cell line panel, 48 h
SF-539 CNS = test system: SF-539 CNS
KM12 colon = test system: KM12 colon
MALME-3M melanoma = test system: MALME-3M melanoma
NCI-H522 lung = test system: NCI-H522 lung
M14 melanoma = test system: M14 melanoma
HCT-15 colon = test system: HCT-15 colon
LOX IMVI melanoma = test system: LOX IMVI melanoma
SW-620 colon = test system: SW-620 colon
BT-549 breast = test system: BT-549 breast
MDA-MB-231 breast = test system: MDA-MB-231 breast

CC(C)(O)[C@@H]1CC[C@@]2(C)CCCC(O)C2(O)C1 (stereo partly drawn)
TGI (SF-539 CNS): > 100 µM | TGI (KM12 colon): > 100 µM | TGI (MALME-3M melanoma): > 100 µM | TGI (NCI-H522 lung): > 100 µM | TGI (M14 melanoma): > 100 µM | TGI (HCT-15 colon): > 100 µM | TGI (LOX IMVI melanoma): > 100 µM | TGI (SW-620 colon): > 100 µM

COC(=O)C(Cc1cc(OC)c(OC)c(OC)c1)C(=O)OC
TGI (KM12 colon): > 320 µM | TGI (MALME-3M melanoma): > 320 µM | TGI (NCI-H522 lung): > 320 µM | TGI (HCT-15 colon): > 320 µM | TGI (LOX IMVI melanoma): > 320 µM | TGI (SW-620 colon): > 320 µM

COc1ccc(NC(=O)C(=O)c2c(O)c3ccc(O)cc3oc2=O)c([N+](=O)[O-])c1
TGI (SF-539 CNS): > 100 µM | TGI (KM12 colon): > 100 µM | TGI (MALME-3M melanoma): > 100 µM | TGI (NCI-H522 lung): > 100 µM | TGI (M14 melanoma): > 100 µM | TGI (HCT-15 colon): > 100 µM | TGI (LOX IMVI melanoma): > 100 µM | TGI (SW-620 colon): > 100 µM

COc1ccc(/C=C(/C#N)C(N)=O)c(OC)c1
TGI (SF-539 CNS): > 100 µM | TGI (KM12 colon): > 100 µM | TGI (BT-549 breast): > 100 µM | TGI (NCI-H522 lung): > 100 µM | TGI (M14 melanoma): > 100 µM | TGI (HCT-15 colon): > 100 µM | TGI (LOX IMVI melanoma): > 100 µM | TGI (MDA-MB-231 breast): > 100 µM | TGI (SW-620 colon): > 100 µM

N#CCCN(c1ccc(C=Nc2ccccc2)cc1)S(=O)(=O)c1ccccc1
TGI (SF-539 CNS): > 100 µM | TGI (KM12 colon): > 100 µM | TGI (MALME-3M melanoma): > 100 µM | TGI (NCI-H522 lung): > 100 µM | TGI (M14 melanoma): > 100 µM | TGI (SW-620 colon): > 100 µM

Cc1cc(S(=O)(=O)Nc2nc3ccccc3o2)c(SCc2ccccc2)cc1Cl
GI50 (SF-539 CNS): 19.1 µM | TGI (SF-539 CNS): 40.8 µM | GI50 (KM12 colon): 18.4 µM | TGI (KM12 colon): 43.4 µM | GI50 (BT-549 breast): 30.5 µM | TGI (BT-549 breast): 79.3 µM | GI50 (NCI-H522 lung): > 100 µM | TGI (NCI-H522 lung): > 100 µM | GI50 (M14 melanoma): 17.5 µM | TGI (M14 melanoma): 38 µM | GI50 (HCT-15 colon): 21.5 µM | TGI (HCT-15 colon): 52.8 µM | GI50 (LOX IMVI melanoma): 14.9 µM | TGI (LOX IMVI melanoma): 34.8 µM | GI50 (MDA-MB-231 breast): 35.9 µM | TGI (MDA-MB-231 breast): 90.5 µM | GI50 (SW-620 colon): 20.6 µM | TGI (SW-620 colon): 56.4 µM

O=C(N/C(=C\c1ccc(Cl)cc1)c1nc2ccccc2[nH]1)c1ccccc1
TGI (SF-539 CNS): 31.1 µM | TGI (KM12 colon): 33.6 µM | TGI (MALME-3M melanoma): > 100 µM | TGI (NCI-H522 lung): 30.7 µM | TGI (M14 melanoma): 34.1 µM | TGI (HCT-15 colon): > 100 µM | TGI (LOX IMVI melanoma): 31.5 µM | TGI (SW-620 colon): 64 µM

Cc1cc(O)c(=O)cc2c1C[C@H]1CC(C)(C)/C=C/C[C@]3(C)Oc4cc(=O)c(O)cc(C)c4C[C@H]3C[C@H](O)[C@@]1(C)O2
GI50 (SF-539 CNS): 0.0332 µM | TGI (SF-539 CNS): 58.6 µM | GI50 (KM12 colon): < 0.01 µM | TGI (KM12 colon): > 100 µM | GI50 (BT-549 breast): 0.0319 µM | TGI (BT-549 breast): 4.55 µM | GI50 (MALME-3M melanoma): 0.0282 µM | TGI (MALME-3M melanoma): 0.544 µM | GI50 (NCI-H522 lung): 0.0192 µM | TGI (NCI-H522 lung): 0.0853 µM | GI50 (M14 melanoma): 0.0266 µM | TGI (M14 melanoma): 19.7 µM | GI50 (HCT-15 colon): < 0.01 µM | TGI (HCT-15 colon): > 100 µM | GI50 (MDA-MB-231 breast): 0.0322 µM | TGI (MDA-MB-231 breast): 50.3 µM | GI50 (SW-620 colon): < 0.01 µM | TGI (SW-620 colon): > 100 µM

Cc1c(Cl)cccc1NC(=O)C(=O)C(C(=O)c1ccccc1-c1ccccc1)C1OC(=O)c2ccccc21 (stereo not drawn)
TGI (SF-539 CNS): 28.1 µM | TGI (KM12 colon): 39.4 µM | TGI (MALME-3M melanoma): 28.8 µM | TGI (NCI-H522 lung): 26.4 µM | TGI (M14 melanoma): 36.3 µM | TGI (LOX IMVI melanoma): 39.5 µM | TGI (SW-620 colon): 49 µM

COC(=O)C(C(=O)C(=O)Nc1c(C)cccc1C)c1cnc2ccccc2n1 (stereo not drawn)
TGI (KM12 colon): > 100 µM | TGI (MALME-3M melanoma): > 100 µM | TGI (NCI-H522 lung): > 100 µM | TGI (M14 melanoma): > 100 µM | TGI (HCT-15 colon): > 100 µM | TGI (LOX IMVI melanoma): > 100 µM | TGI (SW-620 colon): > 100 µM

N.N.N.N.N.[Co+3].[I-].[N-]=[N+]=[N-]
GI50 (SF-539 CNS): > 100 µM | TGI (SF-539 CNS): > 100 µM | GI50 (KM12 colon): > 100 µM | TGI (KM12 colon): > 100 µM | GI50 (MALME-3M melanoma): > 100 µM | TGI (MALME-3M melanoma): > 100 µM | GI50 (NCI-H522 lung): > 100 µM | TGI (NCI-H522 lung): > 100 µM | GI50 (M14 melanoma): > 100 µM | TGI (M14 melanoma): > 100 µM | GI50 (HCT-15 colon): > 100 µM | TGI (HCT-15 colon): > 100 µM | GI50 (LOX IMVI melanoma): > 100 µM | TGI (LOX IMVI melanoma): > 100 µM | GI50 (SW-620 colon): > 100 µM | TGI (SW-620 colon): > 100 µM

COc1ccc(C2=C(Cl)c3cc(OC)c(OC)cc3C2OC)cc1OC (stereo not drawn)
TGI (SF-539 CNS): > 100 µM | TGI (KM12 colon): > 100 µM | TGI (MALME-3M melanoma): > 100 µM | TGI (NCI-H522 lung): > 100 µM | TGI (M14 melanoma): > 100 µM | TGI (HCT-15 colon): > 100 µM | TGI (LOX IMVI melanoma): > 100 µM | TGI (SW-620 colon): 49.2 µM

COc1cc2c(cc1OC)[C@@H](Nc1ccc(C#N)cc1)C1COC(=O)[C@@H]1C2c1cc(OC)c(O)c(OC)c1 (stereo partly drawn)
TGI (SF-539 CNS): 0.856 µM | GI50 (KM12 colon): 1.43 µM | TGI (BT-549 breast): 9.78 µM | GI50 (MALME-3M melanoma): 1.36 µM and 2.47 µM | TGI (MALME-3M melanoma): 70.7 µM and 44.2 µM | GI50 (NCI-H522 lung): 1.11 µM and 5.06 µM | GI50 (M14 melanoma): 0.515 µM and 0.342 µM | TGI (M14 melanoma): 95 µM and > 100 µM | GI50 (HCT-15 colon): 0.91 µM and 1.39 µM | TGI (MDA-MB-231 breast): 6.67 µM | TGI (SW-620 colon): 18.8 µM and > 100 µM

N#Cc1c(-c2ccc(Cl)c(Cl)c2)c(-c2ccc(Cl)c(Cl)c2)nn(CC(=O)O)c1=O
TGI (KM12 colon): > 100 µM | TGI (MALME-3M melanoma): > 100 µM | TGI (M14 melanoma): > 100 µM | TGI (HCT-15 colon): > 100 µM | TGI (LOX IMVI melanoma): > 100 µM | TGI (SW-620 colon): > 100 µM

O=C1C2Nc3ccccc3SC2C(=O)N1c1ccc(Br)cc1 (stereo not drawn)
TGI (SF-539 CNS): > 100 µM | TGI (KM12 colon): > 100 µM | TGI (MALME-3M melanoma): > 100 µM | TGI (NCI-H522 lung): 89.8 µM | TGI (M14 melanoma): > 100 µM | TGI (HCT-15 colon): > 100 µM | TGI (LOX IMVI melanoma): > 100 µM | TGI (SW-620 colon): > 100 µM

C/C(=C1/N=C(c2cc([N+](=O)[O-])ccc2Cl)N(c2cccc(C)c2)C1=O)c1cc2ccccc2oc1=O
TGI (KM12 colon): > 100 µM | TGI (MALME-3M melanoma): > 100 µM | TGI (NCI-H522 lung): > 100 µM | TGI (M14 melanoma): > 100 µM | TGI (HCT-15 colon): > 100 µM | TGI (LOX IMVI melanoma): 37.1 µM | TGI (SW-620 colon): > 100 µM

c1ccc([P+](CCSCCSCC[P+](c2ccccc2)(c2ccccc2)c2ccccc2)(c2ccccc2)c2ccccc2)cc1
TGI (SF-539 CNS): > 100 µM | TGI (KM12 colon): > 100 µM | TGI (BT-549 breast): > 100 µM | TGI (M14 melanoma): > 100 µM | TGI (HCT-15 colon): > 100 µM | TGI (MDA-MB-231 breast): > 100 µM | TGI (SW-620 colon): > 100 µM

COc1ccc(C/C(=N/O)C(=O)NCCc2cc(Br)c(OCCCN(C)C)c(Br)c2)cc1Br
TGI (SF-539 CNS): 29.6 µM | TGI (KM12 colon): 34.9 µM | TGI (MALME-3M melanoma): 44.6 µM | TGI (NCI-H522 lung): 31.5 µM | TGI (M14 melanoma): 31.6 µM | TGI (LOX IMVI melanoma): 30.1 µM | TGI (SW-620 colon): 31.8 µM

Cc1ccc(S(=O)(=O)OCCn2cnc3nc(NC(=O)c4ccccc4)[nH]c(=O)c32)cc1
TGI (SF-539 CNS): > 100 µM | TGI (KM12 colon): > 100 µM | TGI (MALME-3M melanoma): > 100 µM | TGI (NCI-H522 lung): > 100 µM | TGI (M14 melanoma): > 100 µM | TGI (HCT-15 colon): > 100 µM | TGI (LOX IMVI melanoma): > 100 µM | TGI (SW-620 colon): > 100 µM

COC(=O)CC(NC(=O)OCc1ccccc1)C(C(C)=O)C(=O)OCc1ccccc1 (stereo not drawn)
TGI (SF-539 CNS): > 31.6 µM | TGI (KM12 colon): > 31.6 µM | TGI (NCI-H522 lung): > 31.6 µM | TGI (M14 melanoma): > 31.6 µM | TGI (HCT-15 colon): > 31.6 µM | TGI (LOX IMVI melanoma): > 100 µM | TGI (SW-620 colon): > 31.6 µM

CCCCCN(CCCCC)C(=O)[C@@H](CCC(=O)O)NC(=O)c1cc2ccccc2[nH]1
TGI (SF-539 CNS): 49.4 µM | TGI (KM12 colon): > 100 µM | TGI (MALME-3M melanoma): > 100 µM | TGI (NCI-H522 lung): 39.7 µM | TGI (M14 melanoma): 53.4 µM | TGI (HCT-15 colon): > 100 µM | TGI (LOX IMVI melanoma): > 100 µM | TGI (SW-620 colon): > 100 µM

Reference: PubChem BioAssay (NCI)
